Columns and labels:
A549-ACE2 [1] = test: drug-induced phospholipidosis relative to tamoxifen; higher = more phospholipidosis
[2] = tested on: A549-ACE2 infected with SARS-CoV-2; test: SARS-CoV-2 infection rate relative to DMSO; higher = more infection; conditions: 24 h
[3] = tested on: A549-ACE2 infected with SARS-CoV-2; test: cell count relative to DMSO; higher = less toxic; conditions: 24 h
A549-ACE2 [4] = test: phospholipidosis EC50; higher = less potent phospholipidosis inducer
[5] = tested on: A549-ACE2 infected with SARS-CoV-2; test: morphology score (similarity to uninfected cells); higher = more like uninfected cells; conditions: 24 h
HepG2 [6] = test: cell viability relative to DMSO; higher = less toxic; conditions: 72 h
Calu-3 [7] = test: as above; conditions: 72 h
Vero E6 [8] = test: as above; conditions: 72 h
U2OS [9] = test: as above; conditions: 72 h
Caco-2 [10] = test: as above; conditions: 72 h
Calu-3 [11] = test: relative viability EC50 (midpoint between 100% and the lowest measured viability); higher = less toxic; conditions: 72 h
Vero E6 [12] = test: as above; conditions: 72 h
U2OS [13] = test: as above; conditions: 72 h
Caco-2 [14] = test: as above; conditions: 72 h
HepG2 [15] = test: drug sensitivity score (DSS) for viability; higher = more toxic; extreme values may be limits of the assay; conditions: 72 h
Calu-3 [16] = test: as above; conditions: 72 h
Vero E6 [17] = test: as above; conditions: 72 h
U2OS [18] = test: as above; conditions: 72 h
Caco-2 [19] = test: as above; conditions: 72 h
HepG2 [20] = test: relative viability EC50 (midpoint between 100% and the lowest measured viability); higher = less toxic; conditions: 72 h

O=C(CN1C2=NCCN2c2ccccc21)c1ccc(-c2ccccc2)cc1
drug-induced phospholipidosis [%], A549-ACE2 [1]
Conditions | 0.3 µM | 0.833333 µM | 3.33333 µM | 6.66667 µM | 10 µM | 30 µM
24 h | 2.47 | 0.7 | 26.4 | 46.9 | 91.5 | 84
48 h | 4.83 | 1.26 | 21.7 | 49.5 | 106 | 117
72 h | 2.9 | -4.28 | 15 | 36.6 | 99.6 | –

Conditions | SARS-CoV-2 infection rate [%] | cell count [%] | cell viability [%] | morphology score | phospholipidosis EC50 [µM]
A549-ACE2 [4], 24 h | – | – | – | – | 5.39
A549-ACE2 [4], 48 h | – | – | – | – | 7.27
A549-ACE2 [4], 72 h | – | – | – | – | 8.25
Caco-2 [10], 1 nM | – | – | 99.6 | – | –
Caco-2 [10], 10 nM | – | – | 102 | – | –
Caco-2 [10], 100 nM | – | – | 110 | – | –
Caco-2 [10], 1000 nM | – | – | 102 | – | –
Caco-2 [10], 10000 nM | – | – | 88.8 | – | –
Calu-3 [7], 1 nM | – | – | 94.5 | – | –
Calu-3 [7], 10 nM | – | – | 99.2 | – | –
Calu-3 [7], 100 nM | – | – | 92.9 | – | –
Calu-3 [7], 1000 nM | – | – | 100 | – | –
Calu-3 [7], 10000 nM | – | – | 82.2 | – | –
HepG2 [6], 1 nM | – | – | 98.7 | – | –
HepG2 [6], 10 nM | – | – | 97.4 | – | –
HepG2 [6], 100 nM | – | – | 95.1 | – | –
HepG2 [6], 1000 nM | – | – | 98.4 | – | –
HepG2 [6], 10000 nM | – | – | 74.1 | – | –
U2OS [9], 1 nM | – | – | 108 | – | –
U2OS [9], 10 nM | – | – | 104 | – | –
U2OS [9], 100 nM | – | – | 99.1 | – | –
U2OS [9], 1000 nM | – | – | 99.3 | – | –
U2OS [9], 10000 nM | – | – | 90.6 | – | –
Vero E6 [8], 1 nM | – | – | 103 | – | –
Vero E6 [8], 10 nM | – | – | 99.5 | – | –
Vero E6 [8], 100 nM | – | – | 98.8 | – | –
Vero E6 [8], 1000 nM | – | – | 95.4 | – | –
Vero E6 [8], 10000 nM | – | – | 83.4 | – | –
[2], 0.3 µM | 105 | – | – | – | –
[2], 3 µM | 67 | – | – | – | –
[2], 10 µM | 14 | – | – | – | –
[2], 30 µM | 51 | – | – | – | –
[3], 0.3 µM | – | 101 | – | – | –
[3], 3 µM | – | 114 | – | – | –
[3], 10 µM | – | 118 | – | – | –
[3], 30 µM | – | 106 | – | – | –
[5], 0.3 µM | – | – | – | -0.08 | –
[5], 3 µM | – | – | – | 0.58 | –
[5], 10 µM | – | – | – | 0.78 | –
[5], 30 µM | – | – | – | -0.05 | –

Conditions | drug sensitivity score | relative viability EC50 [µM]
Caco-2 [14] | – | > 10
Caco-2 [19] | 0 | –
Calu-3 [11] | – | > 10
Calu-3 [16] | 0.4 | –
HepG2 [15] | 1.2 | –
U2OS [13] | – | > 10
U2OS [18] | 0 | –
Vero E6 [12] | – | > 10
Vero E6 [17] | 0.8 | –

OC(c1cc(C(F)(F)F)nc2c(C(F)(F)F)cccc12)C1CCCCN1 (centres undefined) [mefloquine]
drug-induced phospholipidosis [%], A549-ACE2 [1]
Conditions | 0.3 µM | 0.833333 µM | 3.33333 µM | 6.66667 µM | 10 µM
24 h | 2.22 | 17.4 | 75 | 83.8 | 88.4
48 h | 3.66 | 13 | 67.8 | 86.7 | 102
72 h | 5.04 | 11.3 | 58.8 | 87.9 | 97.7

Conditions | SARS-CoV-2 infection rate [%] | cell count [%] | cell viability [%] | morphology score | phospholipidosis EC50 [µM]
A549-ACE2 [4], 24 h | – | – | – | – | 1.57
A549-ACE2 [4], 48 h | – | – | – | – | 2.78
A549-ACE2 [4], 72 h | – | – | – | – | 3.29
Caco-2 [10], 1 nM | – | – | 108 | – | –
Caco-2 [10], 10 nM | – | – | 103 | – | –
Caco-2 [10], 100 nM | – | – | 102 | – | –
Caco-2 [10], 1000 nM | – | – | 105 | – | –
Caco-2 [10], 10000 nM | – | – | 69.3 | – | –
Calu-3 [7], 1 nM | – | – | 110 | – | –
Calu-3 [7], 10 nM | – | – | 90.2 | – | –
Calu-3 [7], 100 nM | – | – | 105 | – | –
Calu-3 [7], 1000 nM | – | – | 103 | – | –
Calu-3 [7], 10000 nM | – | – | 76.9 | – | –
HepG2 [6], 1 nM | – | – | 98.1 | – | –
HepG2 [6], 10 nM | – | – | 89.9 | – | –
HepG2 [6], 100 nM | – | – | 98.9 | – | –
HepG2 [6], 1000 nM | – | – | 89.7 | – | –
HepG2 [6], 10000 nM | – | – | 10.8 | – | –
U2OS [9], 1 nM | – | – | 106 | – | –
U2OS [9], 10 nM | – | – | 99.6 | – | –
U2OS [9], 100 nM | – | – | 107 | – | –
U2OS [9], 1000 nM | – | – | 99.5 | – | –
U2OS [9], 10000 nM | – | – | 73 | – | –
Vero E6 [8], 1 nM | – | – | 101 | – | –
Vero E6 [8], 10 nM | – | – | 106 | – | –
Vero E6 [8], 100 nM | – | – | 102 | – | –
Vero E6 [8], 1000 nM | – | – | 103 | – | –
Vero E6 [8], 10000 nM | – | – | 78.7 | – | –
[2], 0.1 µM | 107 | – | – | – | –
[2], 0.3 µM | 94 | – | – | – | –
[2], 1 µM | 89 | – | – | – | –
[2], 3 µM | 32 | – | – | – | –
[3], 0.1 µM | – | 98 | – | – | –
[3], 0.3 µM | – | 98 | – | – | –
[3], 1 µM | – | 108 | – | – | –
[3], 3 µM | – | 122 | – | – | –
[5], 0.1 µM | – | – | – | -0.29 | –
[5], 0.3 µM | – | – | – | 0.2 | –
[5], 1 µM | – | – | – | 0.27 | –
[5], 3 µM | – | – | – | 0.84 | –

Conditions | drug sensitivity score | relative viability EC50 [µM]
Caco-2 [19] | 1.1 | –
Calu-3 [11] | – | > 10
Calu-3 [16] | 0.6 | –
HepG2 [15] | 6.7 | –
HepG2 [20] | – | 2.21
U2OS [18] | 1.1 | –
Vero E6 [12] | – | > 10
Vero E6 [17] | 0.5 | –

FC(F)(F)c1cc(CO[C@H]2CCCN[C@H]2c2ccccc2)cc(C(F)(F)F)c1
drug-induced phospholipidosis [%], A549-ACE2 [1]
Conditions | 0.3 µM | 0.833333 µM | 3.33333 µM | 6.66667 µM | 10 µM
24 h | 3.76 | 11.4 | 79.2 | 99.1 | 104
48 h | 4.92 | 7.68 | 61.5 | 89.2 | 97.2
72 h | 5.63 | 5.43 | 40.2 | 85 | 93

Conditions | SARS-CoV-2 infection rate [%] | cell count [%] | cell viability [%] | morphology score | phospholipidosis EC50 [µM]
A549-ACE2 [4], 24 h | – | – | – | – | 2.17
A549-ACE2 [4], 48 h | – | – | – | – | 2.92
A549-ACE2 [4], 72 h | – | – | – | – | 3.8
Caco-2 [10], 1 nM | – | – | 108 | – | –
Caco-2 [10], 10 nM | – | – | 106 | – | –
Caco-2 [10], 100 nM | – | – | 91.1 | – | –
Caco-2 [10], 1000 nM | – | – | 87.2 | – | –
Caco-2 [10], 10000 nM | – | – | 83.6 | – | –
Calu-3 [7], 1 nM | – | – | 97.4 | – | –
Calu-3 [7], 10 nM | – | – | 97.6 | – | –
Calu-3 [7], 100 nM | – | – | 102 | – | –
Calu-3 [7], 1000 nM | – | – | 101 | – | –
Calu-3 [7], 10000 nM | – | – | 18.1 | – | –
HepG2 [6], 1 nM | – | – | 104 | – | –
HepG2 [6], 10 nM | – | – | 97.9 | – | –
HepG2 [6], 100 nM | – | – | 97.8 | – | –
HepG2 [6], 1000 nM | – | – | 107 | – | –
HepG2 [6], 10000 nM | – | – | 88.4 | – | –
U2OS [9], 1 nM | – | – | 104 | – | –
U2OS [9], 10 nM | – | – | 101 | – | –
U2OS [9], 100 nM | – | – | 105 | – | –
U2OS [9], 1000 nM | – | – | 96.2 | – | –
U2OS [9], 10000 nM | – | – | 92.1 | – | –
Vero E6 [8], 1 nM | – | – | 96.7 | – | –
Vero E6 [8], 10 nM | – | – | 102 | – | –
Vero E6 [8], 100 nM | – | – | 102 | – | –
Vero E6 [8], 1000 nM | – | – | 99.1 | – | –
Vero E6 [8], 10000 nM | – | – | 89.4 | – | –
[2], 0.3 µM | 95 | – | – | – | –
[2], 3 µM | 57 | – | – | – | –
[2], 10 µM | 16 | – | – | – | –
[2], 30 µM | 42 | – | – | – | –
[3], 0.3 µM | – | 100 | – | – | –
[3], 3 µM | – | 113 | – | – | –
[3], 10 µM | – | 121 | – | – | –
[3], 30 µM | – | 69 | – | – | –
[5], 0.3 µM | – | – | – | 0.12 | –
[5], 3 µM | – | – | – | 0.72 | –
[5], 10 µM | – | – | – | 0.92 | –
[5], 30 µM | – | – | – | 0.01 | –

Conditions | drug sensitivity score | relative viability EC50 [µM]
Caco-2 [14] | – | > 10
Caco-2 [19] | 2.5 | –
Calu-3 [11] | – | 3.27
Calu-3 [16] | 4.4 | –
HepG2 [15] | 0 | –
HepG2 [20] | – | > 10
U2OS [13] | – | > 10
U2OS [18] | 0 | –
Vero E6 [12] | – | > 10
Vero E6 [17] | 0 | –
